Data: US10039779B2, “Combination formulation of two antiviral compounds” (priority 2013, dated 2018)

Tests used:
[1] = pH-solubility profile and solubility in simulated intestinal media; assay type: physicochemical; details: aqueous, neutral form (pH>5), room temperature
Method: Excess solid ledipasvir was added to a range of pH-adjusted aqueous solutions (titrated with HCl or NaOH) and stirred for 48 hours at room temperature. The suspensions were then filtered through regenerated cellulose syringe filters. The pH value of the supernatant was measured, and the supernatant was diluted as appropriate with 50:50 H2O+0.1% TFA:ACN and assayed for ledipasvir content by the HPLC-UV method.
Solubility of ledipasvir amorphous free base was assessed in three types of simulated intestinal fluids at pH 6.5 or pH 5.0; and simulated intestinal bile salt and lecithin mixture (SIBLM), pH 6.4. Excess solid ledipasvir was added to the respective SIFs and stirred for 48 hours at room temperature. The resulting suspensions were then filtered through regenerated cellulose syringe filters. The supernatant was diluted as appropriate with 50:50 H2O+0.1% TFA:ACN and assayed for ledipasvir content by the HPLC-UV method.

[2] = Aqueous solubility with 0.1% w/w surfactants and polymers; dissolution behavior of forms; assay type: physicochemical; details: aqueous buffered solutions
Method: Excess solid was added to aqueous buffered solutions; samples were withdrawn at predetermined intervals (2, 5, 8, 10, 15, 20, 30, 45, 60 minutes, and 24 hours), filtered through regenerated cellulose filters, and diluted for concentration measurement by the HPLC-UV method.

[3] = Pharmacokinetics of sofosbuvir and ledipasvir alone or in combination; assay type: in vivo; details: for AUC(0-inf) / AUC(0-t) / Cmax: po, plasma analyte, n = 17, mean (% CV)
[4] = Compatibility/stability of sofosbuvir and ledipasvir:copovidone solid dispersion blend; assay type: physicochemical; details: for Strength / Total Impurity Content: blend pellets, open glass vials
Method: The compatibility of sofosbuvir anhydrous crystalline drug substance was evaluated with the ledipasvir:copovidone solid dispersion. A blend of the sofosbuvir and ledipasvir:copovidone (1:1) solid dispersion was prepared at a ratio representative of the final 400 mg sofosbuvir/90 mg ledipasvir tablets. […]

[5] = PK of sofosbuvir alone or with Compound E (and ledipasvir); assay type: in vivo; details: for AUC(0-inf) / AUC(0-t) / Cmax: human, in vivo, n = 18, mean (% CV)
Method: Subjects (n=18) received single doses of sofosbuvir (400 mg) alone or in combination with Compound E (500 mg QD) under fed conditions.

HCV = assay: Dose selection: antiviral response and Emax PK/PD modeling; assay type: in vivo, Hepatitis C virus
Method: The sofosbuvir dose selected for the tablet formulation is 400 mg once daily. Support for the 400 mg sofosbuvir dose can be derived from Emax PK/PD modeling with early virological and human exposure data which also supports the selection of a 400 mg sofosbuvir dose over others tested.
The mean sofosbuvir major metabolite AUCtau for the 400 mg sofosbuvir dose is associated with approximately 77% of the maximal HCV RNA change from baseline achievable as determined by this model, a value which is on the cusp of the plateau of the exposure-response sigmoidal curve. […] Therefore, given that sofosbuvir exposure with 200 mg tablets appears dose-proportional with single doses up to 1200 mg, doses below 400 mg are expected to yield considerable reductions in the magnitude of HCV RNA change from baseline.
The sofosbuvir dose of 400 mg once daily was associated with higher SVR rates in genotype 1 HCV infected patients as compared to the 200 mg once daily dose when given in conjunction with additional HCV therapeutics for 24 weeks. Safety and tolerability appeared similar across both dose levels. In addition, when sofosbuvir 400 mg once daily plus other HCV therapeutics were given to genotype 2 or 3 HCV infected patients, 100% SVR24 was observed.
The maximum median HCV RNA log 10 reduction was 3 or greater for all cohorts dosed with ≥3 mg of ledipasvir. […] Therefore, 30 mg and 90 mg of ledipasvir were selected as the dose for the formulations described herein.
Therefore, the 90 mg dose of ledipasvir may confer a greater antiviral coverage that prevents viral breakthrough.

clinical = details: in vivo; for AUC(0-inf) / AUC(0-t) / Cmax: po, plasma analyte, Sofosbuvir/Ledipasvir Tablet, n = 29, mean (% CV); for AUC(0-inf): AUCinf; for AUC(0-t): AUClast
[6] = PK of Sofosbuvir/Ledipasvir tablets fasted or with meals
[7] = listed as Ledipasvir crystalline free base Form III
[8] = Sofosbuvir + Ledipasvir vs single agent alone
[9] = in vivo, Sofosbuvir + Ledipasvir
[10] = SOF + Compound E + ledipasvir vs SOF alone
[11] = po, 400 mg, SOF + Compound E (500 mg QD), fed
[12] = po, 400 mg, SOF alone (400 mg single dose, fed)

With `COC(=O)N[C@H](C(=O)N1CC2(CC2)C[C@H]1c1ncc(-c2ccc3c(c2)C(F)(F)c2cc(-c4ccc5nc([C@@H]6[C@H]7CC[C@H](C7)N6C(=O)[C@@H](NC(=O)OC)C(C)C)[nH]c5c4)ccc2-3)[nH]1)C(C)C` [Ledipasvir Form III] the “intrinsic solubility (S0)” value [1, 7] was under 0.1 µg/mL and the “dissolution behavior relative to other ledipasvir forms” value [2, 7] was “dissolves more slowly than the amorphous free base, but faster than ledipasvir-03”.
With `COC(=O)N[C@H](C(=O)N1CC2(CC2)C[C@H]1c1ncc(-c2ccc3c(c2)C(F)(F)c2cc(-c4ccc5nc([C@@H]6[C@H]7CC[C@H](C7)N6C(=O)[C@@H](NC(=O)OC)C(C)C)[nH]c5c4)ccc2-3)[nH]1)C(C)C` [Ledipasvir-02] the “dissolution behavior relative to other ledipasvir forms” value [2] was “improved relative to all free base forms”.
For `COC(=O)N[C@H](C(=O)N1CC2(CC2)C[C@H]1c1ncc(-c2ccc3c(c2)C(F)(F)c2cc(-c4ccc5nc([C@@H]6[C@H]7CC[C@H](C7)N6C(=O)[C@@H](NC(=O)OC)C(C)C)[nH]c5c4)ccc2-3)[nH]1)C(C)C` [Ledipasvir-03], the “intrinsic solubility (S0)” value [1] was under 0.1 µg/mL and the “dissolution behavior relative to other ledipasvir forms” value [2] was “slowest dissolution of all forms tested”.
With `CC(C)OC(=O)[C@H](C)N[P@](=O)(OC[C@H]1O[C@@H](n2ccc(=O)[nH]c2=O)[C@](C)(F)[C@@H]1O)Oc1ccccc1` [Sofosbuvir, (S)-isopropyl 2-(((S)-(((2R,3R,4R,5R)-5-(2,4-dioxo-3,4-dihydropyrimidin-1(2H)-yl)-4-fluoro-3-hydroxy-4-methyltetrahydrofuran-2-yl)methoxy)(phenoxy)phosphoryl)amino)propanoate] the “AUC with ledipasvir as share of total drug related material (DRM) AUC” value ([3]; DRM = sum of AUCs of analytes corrected for molecular weight) was about 5.7%, the “% GMR (90% CI) of AUCinf” value [3, 8] was 229 (191, 276) % and the “% GMR (90% CI) of AUClast” value [3, 8] was 230 (191, 277) %. The “% GMR (90% CI) of Cmax” value [3, 8] was 221 (176, 278) %, the “increase of plasma exposure by ledipasvir” value ([3]; in vivo) was about 2.3 fold and the AUC(0-inf) [3, 9] was 1750 ng·h/mL. The AUC(0-t) [3, 9] was 1740 ng·h/mL, the Cmax [3, 9] was 1870 ng/mL and the AUC(0-inf) ([3]; in vivo, Sofosbuvir alone) was 794 ng·h/mL. The AUC(0-t) ([3]; in vivo, Sofosbuvir alone) was 788 ng·h/mL, the Cmax ([3]; in vivo, Sofosbuvir alone) was 929 ng/mL and the “degradation in blend with the other active” value ([4]; 40° C./75% RH and 60° C./ambient humidity, two and four weeks) was “no degradation was observed”. For the same compound, the Strength ([4]; 45° C./75% RH, 0 weeks) was 102.9%, the “Total Impurity Content” value ([4]; 45° C./75% RH, 0 weeks) was 0.4% and the Strength ([4]; 45° C./75% RH, 2 weeks) was 101.6%. The “Total Impurity Content” value ([4]; 45° C./75% RH, 2 weeks) was 0.3%, the Strength ([4]; 45° C./75% RH, 4 weeks) was 100.5% and the “Total Impurity Content” value ([4]; 45° C./75% RH, 4 weeks) was 0.2%. For the same compound, the Strength ([4]; 60° C., 0 weeks) was 102.9%, the “Total Impurity Content” value ([4]; 60° C., 0 weeks) was 0.4% and the Strength ([4]; 60° C., 1 week) was 102.4%. The “Total Impurity Content” value ([4]; 60° C., 1 week) was 0.3%, the Strength ([4]; 60° C., 2 weeks) was 103.2% and the “Total Impurity Content” value ([4]; 60° C., 2 weeks) was 0.3%. The Strength ([4]; 60° C., 4 weeks) was 102.8%, the “Total Impurity Content” value ([4]; 60° C., 4 weeks) was 0.2% and the “% GMR of AUCinf” value [5, 10] was 297%. For the same compound, the “% GMR of AUClast” value [5, 10] was 301%, the “% GMR of Cmax” value [5, 10] was 283% and the “% GMR of AUCinf” value ([5]; SOF + Compound E vs SOF alone) was 135%. For the same compound, the “% GMR of AUClast” value ([5]; SOF + Compound E vs SOF alone) was 135%, the “% GMR of Cmax” value ([5]; SOF + Compound E vs SOF alone) was 130% and the AUC(0-inf) ([5]; SOF + Compound E + ledipasvir) was 2560 ng·h/mL. It also gave an AUC(0-t) ([5]; SOF + Compound E + ledipasvir) of 2550 ng·h/mL, a Cmax ([5]; SOF + Compound E + ledipasvir) of 1260 ng/mL and an AUC(0-inf) [5, 11] of 1150 ng·h/mL. It also gave an AUC(0-t) [5, 11] of 1140 ng·h/mL, a Cmax [5, 11] of 587 ng/mL and an AUC(0-inf) [5, 12] of 921 ng·h/mL. For the same compound, the AUC(0-t) [5, 12] was 908 ng·h/mL, the Cmax [5, 12] was 515 ng/mL and the “share of the maximal HCV RNA change from baseline achievable (Emax PK/PD model)” value (HCV; 400 mg dose, mean major metabolite AUCtau) was “approximately 77%”. For the same compound, the SVR24 (HCV; 400 mg once daily plus other HCV therapeutics, genotype 2 or 3 HCV infected patients) was 100%, the Tmax (clinical) was 1 h and the AUC(0-inf) (clinical; Fasted) was 1520 ng·h/mL. The AUC(0-inf) (clinical; High-Calorie/High-Fat Meal) was 2570 ng·h/mL, the AUC(0-inf) (clinical; Moderate-Fat Meal) was 2860 ng·h/mL and the AUC(0-t) (clinical; Fasted) was 1520 ng·h/mL. For the same compound, the AUC(0-t) (clinical; High-Calorie/High-Fat Meal) was 2550 ng·h/mL, the AUC(0-t) (clinical; Moderate-Fat Meal) was 2850 ng·h/mL and the Cmax (clinical; Fasted) was 1240 ng/mL. The Cmax (clinical; High-Calorie/High-Fat Meal) was 1350 ng/mL, the Cmax (clinical; Moderate-Fat Meal) was 1520 ng/mL and the “% GMR (90% CI) [Moderate-Fat/Fasted] of AUCinf” value ([6]; Sofosbuvir/Ledipasvir Tablet) was 195 (176, 216) %. For the same compound, the “% GMR (90% CI) [Moderate-Fat/Fasted] of AUClast” value ([6]; Sofosbuvir/Ledipasvir Tablet) was 195 (176, 216) %, the “% GMR (90% CI) [Moderate-Fat/Fasted] of Cmax” value ([6]; Sofosbuvir/Ledipasvir Tablet) was 126 (109, 147) % and the “GMR (90% CI) [High-Fat/Fasted] of AUCinf” value ([6]; Sofosbuvir/Ledipasvir Tablet) was 179 (162, 198) %. The “GMR (90% CI) [High-Fat/Fasted] of AUClast” value ([6]; Sofosbuvir/Ledipasvir Tablet) was 178 (161, 198) %, the “GMR (90% CI) [High-Fat/Fasted] of Cmax” value ([6]; Sofosbuvir/Ledipasvir Tablet) was 115 (99.0, 134) % and the “median Tmax” value ([6]; sofosbuvir/ledipasvir composition, with food) was 2.00 h.
